Active and inactive are the calls of the source. No cut-off for these calls is given here.
What was measured:
[1] = Metabolic stability mouse liver microsome assessed as half life; format: ADME; conditions: microsomes
[2] = Stability in mouse plasma assessed as half life; format: ADME, cell-free
[3] = Stability in rat plasma assessed as half life; format: ADME, cell-free
[4] = Stability in human plasma assessed as half life; format: ADME, cell-free
[5] = Cmax in mouse at 3 mg/kg, po or 1 mg/kg, iv measured upto 24 hrs by LC-MS/MS analysis; format: ADME, organism-based; conditions: in vivo
[6] = AUC (0 to infinity) in dog at 3 mg/kg, po or 1 mg/kg, iv measured upto 24 hrs by LC-MS/MS analysis; format: ADME, organism-based, Canis lupus familiaris; conditions: in vivo
[7] = Volume of distribution at steady state in mouse at 3 mg/kg, po or 1 mg/kg, iv measured upto 24 hrs by LC-MS/MS analysis; format: ADME, organism-based; conditions: in vivo
[8] = Volume of distribution at steady state in rat at 3 mg/kg, po or 1 mg/kg, iv measured upto 24 hrs by LC-MS/MS analysis; format: ADME, organism-based; conditions: in vivo
[9] = Oral bioavailability in mouse at 3 mg/kg measured upto 24 hrs by LC-MS/MS analysis; format: ADME, organism-based; conditions: in vivo
Cytochrome P450 1A2 = target: T1, Cytochrome P450 1A2 (Homo sapiens, UniProt P05177); experiment: Inhibition of CYP1A2 in human liver microsomes incubated for 5 mins in presence of NADPH by LC-MS/MS analysis; format: ADME, Microsome
T1 sequence (P05177 whole entry): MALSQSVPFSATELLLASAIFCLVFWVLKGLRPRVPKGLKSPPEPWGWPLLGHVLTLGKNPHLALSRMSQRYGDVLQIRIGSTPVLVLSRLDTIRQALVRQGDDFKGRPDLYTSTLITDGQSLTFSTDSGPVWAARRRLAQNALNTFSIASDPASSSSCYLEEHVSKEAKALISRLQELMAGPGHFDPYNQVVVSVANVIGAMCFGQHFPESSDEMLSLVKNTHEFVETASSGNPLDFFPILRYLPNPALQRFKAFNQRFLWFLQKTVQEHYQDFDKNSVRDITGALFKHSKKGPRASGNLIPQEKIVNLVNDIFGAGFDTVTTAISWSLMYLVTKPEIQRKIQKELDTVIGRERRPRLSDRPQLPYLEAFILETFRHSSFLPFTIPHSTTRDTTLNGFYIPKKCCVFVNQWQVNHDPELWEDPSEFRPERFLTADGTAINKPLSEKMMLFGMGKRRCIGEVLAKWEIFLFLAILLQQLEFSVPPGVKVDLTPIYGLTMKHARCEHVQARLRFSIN

Cytochrome P450 2C8 = target: T2, Cytochrome P450 2C8 (Homo sapiens, UniProt P10632); experiment: Inhibition of CYP2C8 in human liver microsomes incubated for 5 mins in presence of NADPH by LC-MS/MS analysis; format: ADME, Microsome
T2 sequence (P10632 whole entry): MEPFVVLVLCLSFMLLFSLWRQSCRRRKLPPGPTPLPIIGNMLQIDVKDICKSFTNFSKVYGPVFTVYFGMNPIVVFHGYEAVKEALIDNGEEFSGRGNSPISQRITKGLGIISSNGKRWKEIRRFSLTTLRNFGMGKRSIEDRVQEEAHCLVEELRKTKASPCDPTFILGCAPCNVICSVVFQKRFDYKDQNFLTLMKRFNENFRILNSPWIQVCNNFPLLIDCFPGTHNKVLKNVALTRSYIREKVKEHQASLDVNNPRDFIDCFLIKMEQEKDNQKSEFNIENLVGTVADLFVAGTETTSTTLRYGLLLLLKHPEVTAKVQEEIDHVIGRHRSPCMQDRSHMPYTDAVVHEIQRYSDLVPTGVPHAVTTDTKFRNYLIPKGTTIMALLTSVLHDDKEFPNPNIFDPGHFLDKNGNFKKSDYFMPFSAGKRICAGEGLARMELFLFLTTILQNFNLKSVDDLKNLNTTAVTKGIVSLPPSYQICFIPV

Cytochrome P450 2C9 = Cytochrome P450 2C9 (Homo sapiens, UniProt P11712); experiment: Inhibition of CYP2C9 in human liver microsomes incubated for 5 mins in presence of NADPH by LC-MS/MS analysis; format: ADME, Microsome
Cytochrome P450 2C9, sequence (P11712 whole entry): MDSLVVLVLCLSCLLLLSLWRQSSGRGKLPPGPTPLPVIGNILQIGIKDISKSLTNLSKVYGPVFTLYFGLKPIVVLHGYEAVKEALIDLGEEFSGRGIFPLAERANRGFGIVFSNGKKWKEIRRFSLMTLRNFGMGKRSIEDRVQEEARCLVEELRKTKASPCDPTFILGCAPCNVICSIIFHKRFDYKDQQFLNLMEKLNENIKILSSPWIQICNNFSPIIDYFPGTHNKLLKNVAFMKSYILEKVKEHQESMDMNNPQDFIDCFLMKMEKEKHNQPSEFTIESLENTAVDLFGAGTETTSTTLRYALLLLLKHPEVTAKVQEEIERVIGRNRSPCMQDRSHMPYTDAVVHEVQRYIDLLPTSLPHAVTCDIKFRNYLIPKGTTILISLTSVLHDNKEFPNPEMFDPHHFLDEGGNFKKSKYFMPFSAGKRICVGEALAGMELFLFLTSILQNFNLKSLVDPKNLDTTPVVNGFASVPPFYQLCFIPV

Cytochrome P450 3A4 = Cytochrome P450 3A4 (Homo sapiens, UniProt P08684); experiment: Inhibition of CYP3A4 in human liver microsomes using midazolam as substrate preincubated for 5 mins followed by NADPH addition and measured after 10 mins by LC-MS/MS analysis; format: ADME, Microsome
Cytochrome P450 3A4, sequence (P08684 whole entry): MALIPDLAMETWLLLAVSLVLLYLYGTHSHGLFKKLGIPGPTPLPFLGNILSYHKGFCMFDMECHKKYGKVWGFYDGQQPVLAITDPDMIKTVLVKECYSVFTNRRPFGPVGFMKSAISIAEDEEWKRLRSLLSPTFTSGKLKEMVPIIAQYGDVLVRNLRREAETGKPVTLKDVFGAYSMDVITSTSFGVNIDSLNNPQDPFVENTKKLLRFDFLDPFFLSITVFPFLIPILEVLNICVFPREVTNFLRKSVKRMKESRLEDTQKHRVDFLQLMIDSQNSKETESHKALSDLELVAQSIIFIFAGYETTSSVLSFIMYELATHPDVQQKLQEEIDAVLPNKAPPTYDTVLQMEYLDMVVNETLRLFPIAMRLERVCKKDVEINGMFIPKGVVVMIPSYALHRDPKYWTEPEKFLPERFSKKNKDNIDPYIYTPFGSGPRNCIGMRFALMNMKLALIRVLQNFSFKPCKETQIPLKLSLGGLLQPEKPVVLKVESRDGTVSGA

[10] = target: Voltage-gated inwardly rectifying potassium channel KCNH2 (Homo sapiens, UniProt Q12809); experiment: Inhibition of hERG in HEK293 cells by whole-cell patch clamp assay; format: toxicity, cell-based
Voltage-gated inwardly rectifying potassium channel KCNH2, sequence (Q12809 whole entry): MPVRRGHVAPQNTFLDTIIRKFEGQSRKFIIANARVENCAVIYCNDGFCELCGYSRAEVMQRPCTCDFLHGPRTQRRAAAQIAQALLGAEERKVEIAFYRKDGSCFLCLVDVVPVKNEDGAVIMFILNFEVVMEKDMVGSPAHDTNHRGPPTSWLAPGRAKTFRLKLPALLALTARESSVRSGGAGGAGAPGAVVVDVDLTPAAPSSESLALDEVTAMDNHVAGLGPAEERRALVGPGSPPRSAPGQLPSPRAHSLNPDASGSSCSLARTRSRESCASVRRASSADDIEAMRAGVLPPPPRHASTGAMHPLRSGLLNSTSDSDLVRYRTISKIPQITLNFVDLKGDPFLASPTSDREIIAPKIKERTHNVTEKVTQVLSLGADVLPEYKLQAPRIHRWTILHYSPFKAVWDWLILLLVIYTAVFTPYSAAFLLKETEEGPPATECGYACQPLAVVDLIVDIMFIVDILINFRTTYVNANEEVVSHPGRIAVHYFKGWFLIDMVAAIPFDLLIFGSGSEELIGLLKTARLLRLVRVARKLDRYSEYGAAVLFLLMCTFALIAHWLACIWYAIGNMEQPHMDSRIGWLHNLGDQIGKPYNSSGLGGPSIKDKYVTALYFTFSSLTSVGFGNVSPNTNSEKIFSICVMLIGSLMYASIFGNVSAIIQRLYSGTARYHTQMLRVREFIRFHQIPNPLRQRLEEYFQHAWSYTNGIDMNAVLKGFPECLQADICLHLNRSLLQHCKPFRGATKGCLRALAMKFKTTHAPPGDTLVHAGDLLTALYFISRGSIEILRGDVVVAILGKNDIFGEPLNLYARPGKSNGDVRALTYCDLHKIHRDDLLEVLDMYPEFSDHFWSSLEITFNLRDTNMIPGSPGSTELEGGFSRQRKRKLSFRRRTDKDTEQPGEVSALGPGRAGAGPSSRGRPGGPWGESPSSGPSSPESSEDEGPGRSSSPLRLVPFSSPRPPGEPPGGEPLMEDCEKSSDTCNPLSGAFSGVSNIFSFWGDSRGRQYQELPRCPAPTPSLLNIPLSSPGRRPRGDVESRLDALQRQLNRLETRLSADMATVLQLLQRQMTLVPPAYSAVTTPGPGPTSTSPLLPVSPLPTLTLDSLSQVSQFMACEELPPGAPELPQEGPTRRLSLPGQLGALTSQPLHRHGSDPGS

[11] = Plasma protein binding in rat; format: ADME, cell-free
[12] = target: T3, Protein cereblon/Estrogen receptor (Homo sapiens, UniProt P03372+Q96SW2); experiment: PROTAC activity at CRBN/ERalpha in human MCF7 cells assessed as reduction in ERalpha protein level at 1 nM measured at 4 hrs by Western blot analysis; format: cell-based
T3 sequence (P03372 whole entry, looked up): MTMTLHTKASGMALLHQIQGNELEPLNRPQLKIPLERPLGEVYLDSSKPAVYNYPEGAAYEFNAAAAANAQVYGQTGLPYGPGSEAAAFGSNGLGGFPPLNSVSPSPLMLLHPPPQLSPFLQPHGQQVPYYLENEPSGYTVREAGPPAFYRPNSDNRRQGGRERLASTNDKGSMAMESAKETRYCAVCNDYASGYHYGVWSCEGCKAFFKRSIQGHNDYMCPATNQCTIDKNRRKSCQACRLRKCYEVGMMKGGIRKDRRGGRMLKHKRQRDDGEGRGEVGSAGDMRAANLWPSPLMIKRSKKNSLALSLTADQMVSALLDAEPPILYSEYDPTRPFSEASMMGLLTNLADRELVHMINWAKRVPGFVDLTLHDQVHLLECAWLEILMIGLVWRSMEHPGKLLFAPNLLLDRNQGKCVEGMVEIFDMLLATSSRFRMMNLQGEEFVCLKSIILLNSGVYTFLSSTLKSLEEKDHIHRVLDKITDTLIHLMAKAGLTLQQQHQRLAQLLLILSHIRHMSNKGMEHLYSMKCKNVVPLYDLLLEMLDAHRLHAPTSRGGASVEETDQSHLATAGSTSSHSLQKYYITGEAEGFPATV
T3 sequence (Q96SW2 whole entry, looked up): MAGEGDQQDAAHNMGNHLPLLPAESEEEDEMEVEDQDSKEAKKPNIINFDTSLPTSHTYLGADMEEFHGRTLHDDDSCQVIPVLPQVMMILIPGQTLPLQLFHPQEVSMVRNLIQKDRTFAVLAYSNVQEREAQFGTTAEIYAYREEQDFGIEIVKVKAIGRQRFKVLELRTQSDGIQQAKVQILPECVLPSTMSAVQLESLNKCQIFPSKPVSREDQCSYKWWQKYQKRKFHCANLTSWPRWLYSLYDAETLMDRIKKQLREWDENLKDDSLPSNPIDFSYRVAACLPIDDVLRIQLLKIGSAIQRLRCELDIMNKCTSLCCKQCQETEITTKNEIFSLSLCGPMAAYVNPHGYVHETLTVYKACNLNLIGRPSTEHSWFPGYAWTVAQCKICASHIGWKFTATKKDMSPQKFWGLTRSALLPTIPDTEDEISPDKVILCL

[13] = target: T3, Protein cereblon/Estrogen receptor; experiment: PROTAC activity at CRBN/wild type ERalpha in human T47D cells assessed as reduction in ERalpha protein level at 10 to 100 nM measured at 7 hrs by Western blot analysis; format: cell-based; conditions: dose 10-100 nM
[14] = target: T3, Protein cereblon/Estrogen receptor; experiment: PROTAC activity at CRBN/ERalpha in human MCF7 cells assessed as reduction in ERalpha protein level at 5 nM measured for 4 hrs in presence of MLN-4924 by Western blot analysis; format: cell-based
[15] = target: T3, Protein cereblon/Estrogen receptor; experiment: PROTAC activity at CRBN/ERalpha in human MCF7 cells assessed as reduction ER level at 100 nM measured for 5 hrs by Western blot analysis; format: cell-based
MCF7 [16] = experiment: Antiproliferative activity against human MCF7 cells assessed as cell growth inhibition incubated for 4 days by crystal violet staining based assay; format: functional; conditions: time 4.0 day
[17] = target: T3, Protein cereblon/Estrogen receptor; experiment: In-vivo PROTAC activity at CRBN/ERalpha in SCID mouse xenografted with human MCF7 cells assessed as reduction in ERalpha level in tumor at 30 mg/kg, po administered daily for 3 days and measured after 24 hrs by Western blot analysis; format: functional, organism-based; design: scale not given: the % may be the effect or the level left; conditions: time 96.0 hrs
[18] = test system: Protein cereblon/Estrogen receptor (Homo sapiens), P03372+Q96SW2 [Y537S]; experiment: In vivo PROTAC activity at CRBN/ESR1 Y537S mutant in SCID mouse xenografted with human MCF7 cells assessed as reduction in ESR1 Y537S level in tumor at 10 mg/kg, po measured after 24 hrs by Western blot analysis; format: functional, organism-based; design: scale not given: the % may be the effect or the level left
MCF7 [19] = experiment: Antitumor activity against human MCF7 cells xenografted in SCID mouse assessed as tumor growth inhibition at 3 mg/kg, po administered for 41 to 76 days; format: functional; conditions: time 41-76 day, read-out: TGI
MCF7 [20] = experiment: Antitumor activity against human MCF7 cells xenografted in SCID mouse assessed as tumor growth inhibition at 10 mg/kg, po administered for 41 to 76 days; format: functional; conditions: time 41-76 day, read-out: TGI
[21] = Drug concentration in SCID mouse plasma at 10 mg/kg, po administered once daily for 3 days measured after 24 hrs by LC-MS/MS analysis; format: ADME, organism-based
[22] = Drug concentration in SCID mouse tumor at 10 mg/kg, po administered once daily for 3 days measured after 24 hrs by LC-MS/MS analysis; format: ADME, organism-based, Neoplasm
[23] = Drug concentration in SCID mouse plasma at 30 mg/kg, po administered once daily for 3 days measured after 24 hrs by LC-MS/MS analysis; format: ADME, organism-based

**Q.** For O=C1CC[C@H](N2Cc3c(ccc4c3OCC43CCN(C[C@@H]4CCC5(CCN(c6ccc([C@@H]7c8ccc(O)cc8CC[C@@H]7c7ccccc7)cc6)CC5)OC4)CC3)C2=O)C(=O)N1, which t1/2 [1] is on record?
**A.** Its t1/2 is greater than 1 h.

**Q.** What about the t1/2 [2] of the same compound?
**A.** The t1/2 was greater than 4 h.

**Q.** And the t1/2 [3]?
**A.** The t1/2 was greater than 4 h.

**Q.** What about the t1/2 [4] of the same compound?
**A.** The t1/2 was greater than 4 h.

**Q.** What about the Cmax [5] of the same compound?
**A.** The Cmax was 58.6 ng/mL.

**Q.** And the AUC(0-inf) [6]?
**A.** Its AUC(0-inf) is 15500 ng·h/mL.

**Q.** What about the Vdss [7] of the same compound?
**A.** The Vdss was 5.8 L/kg.

**Q.** What about the Vdss [8] of the same compound?
**A.** The Vdss was 1.9 L/kg.

**Q.** And the F [9]?
**A.** Its F is 37%.

**Q.** What about the IC50 (Cytochrome P450 1A2) of the same compound?
**A.** Its IC50 is greater than 10 µM.

**Q.** What about the IC50 (Cytochrome P450 2C8) of the same compound?
**A.** The IC50 was greater than 10 µM.

**Q.** And the IC50 (Cytochrome P450 2C9)?
**A.** Its IC50 is greater than 10 µM.

**Q.** What about the IC50 (Cytochrome P450 3A4) of the same compound?
**A.** Its IC50 is greater than 10 µM.

**Q.** What about the IC50 [10] of the same compound?
**A.** The IC50 was greater than 10 µM.

**Q.** And the PPB [11]?
**A.** The PPB was 95.7%.

**Q.** And the Activity [12]?
**A.** The Activity was “Active”.

**Q.** What about the Activity [13] of the same compound?
**A.** The Activity was “Active”.

**Q.** And the Activity [14]?
**A.** The Activity was “inactive”.

**Q.** And the Activity [15]?
**A.** Its Activity is “No effect”.

**Q.** What about the Activity (MCF7 [16]) of the same compound?
**A.** Its Activity is “Active”.

**Q.** What about the Activity [17] of the same compound?
**A.** The Activity was 29%.

**Q.** What about the Activity [18] of the same compound?
**A.** The Activity was 71%.

**Q.** And the inhibition in vivo at 3 mg/kg (MCF7 [19])?
**A.** Its inhibition in vivo at 3 mg/kg is 93%.

**Q.** And the inhibition in vivo at 10 mg/kg (MCF7 [20])?
**A.** Its inhibition in vivo at 10 mg/kg is 94%.

**Q.** And the concentration at 96 h [21]?
**A.** Its concentration at 96 h is 18 ng/mL.

**Q.** And the concentration at 96 h [22]?
**A.** The concentration at 96 h was 294 ng/mL.

**Q.** What about the concentration at 96 h [23] of the same compound?
**A.** Its concentration at 96 h is 72 ng/mL.
